According to paper PMC3320733 (International Journal of Antimicrobial Agents, 2012):
Where no end group is shown, it is not given here.

How the values were obtained:
Type in all cases: cell-based
[1] = system: Bacillus subtilis 168
[2] = system: Pseudomonas aeruginosa PAO1
[3] = system: human red blood cells; assay: Haemolytic effects on human red blood cells; conditions: 1 h

Substance	MIC Bacillus subtilis [1] [µM]	MIC Pseudomonas aeruginosa [2] [µM]	HL50 (concentration at which 50% of red blood cells were lysed) [3] [µM]
FFHHIFRGIVHVGKTIHRLVTG [Piscidin 1] [listing 1 of 2 here]	12.5	50	–
FFGKVLKLIRKIF-NH2 [DASamP1]	>100	>100	25
FFHHIFRGIVHVGKTIHRLVTG [Piscidin 1] [listing 2 of 2 here]	–	–	20
GFKDLLKGAAKALVKTVLF-NH2 [Ascaphin-8]	6.25	12.5	45
GLLGLLGSVVSHVVPAIVGHF-NH2 [Maculatin 1.3] [listing 1 of 2 here]	25	>100	–
GLLGLLGSVVSHVVPAIVGHF-NH2 [Maculatin 1.3] [listing 2 of 2 here]	–	–	25
